The source of these data is patent publication US7501238B2, “Skin substitutes for irritancy testing” (priority 2001, dated 2009).

Data set [1] relates to NIKS organotypic cultures. Nature of the data set: IL-1α secretion by NIKS organotypic cultures after topical irritant (ELISA). Type of data set: cell-based, human. The note with it: 24 hr at 37° C. The method, then: (§1) Solutions of SDS (0.1%, 0.2%, and 0.5%) were topically applied to air-exposed NIKS organotypic cultures and incubated for 24 hr at 37° C. After 24 hr, the media underneath the cultures was assayed for IL-1α protein using a Quantikine IL-1α ELISA kit (R&D Systems, Minneapolis, Minn.) and cultures were incubated with MTS reagent (Promega Corp., Madison, Wis.) to determine cell viability. Media from untreated cultures contained 25 pg/ml IL-1α, whereas the concentration of IL-1α in cultures treated with 0.1%, 0.2% or 0.5% SDS was 290, 375 and 275 pg/ml respectively.

The subject of data set [2] is NIKS organotypic cultures. Kind of data set: MTS cell viability of irritant-treated NIKS organotypic cultures. Type of data set: cell-based, human. As to conditions: 0.5% SDS, 24 hr. As to the method: as §1
These values correspond well with published IL-1α responses in SDS-exposed skin equivalents (Perkins et al, Toxicological Sciences, 48:218 [1999]).

Data set [3] concerns skin equivalents. The note with it: irritant-treated skin equivalents; 0.2% SDS, 0.005% calcipotriol, 0.025% trans-retinoic acid; cited from earlier work.
For data set [4], the system named is in vitro skin equivalent cultures. The note with it: substance added to in vitro cultures, cited from earlier work.
The test system of data set [5] is IL-8 promoter sequences between −1472 and +19 in tracheobronchial epithelial cells. The note with it: cited from earlier work.

Read-outs that look alike come from different tables or passages of the source.

`CCCCCCCCCCCCOS(=O)(=O)[O-].[Na+]` [SDS]: the “concentration of IL-1α in media” value is 290 pg/mL in data set [1] (0.1% SDS applied topically), 375 pg/mL in data set [1] (0.2% SDS applied topically) and 275 pg/mL in data set [1] (0.5% SDS applied topically). The “cell viability (MTS assay)” value in data set [2] was “decreased cell viability”. Moreover, the “expression and secretion of the pro-inflammatory cytokines IL-1α and IL-8” value (shortened to “expression and secretion”) in data set [3] was “induce expression and secretion”.

Consider `O=C1O[C@H]([C@@H](O)CO)C(O)=C1O` [Vitamin C], for which the entries for the “Lipid Composition” value in data set [4] and in data set [4] (listed as vitamin C) were “Major” and “improved the lipid profile”, respectively.

Consider `C=C1/C(=C\C=C2/CCC[C@]3(C)[C@@H]([C@H](C)/C=C/[C@@H](O)C4CC4)CC[C@@H]23)C[C@@H](O)C[C@@H]1O` [calcipotriol], for which the “expression and secretion” value in data set [3] was “induce expression and secretion”.

In the case of `CC1=C(/C=C/C(C)=C/C=C/C(C)=C/C(=O)O)C(C)(C)CCC1` [trans-retinoic acid], the “induction of reporter gene containing IL-8 promoter sequences” value in data set [5] is reported as “induced”. Moreover, the “expression and secretion” value in data set [3] is “induce expression and secretion”.

For the molecule “EGF: epidermal growth factor (NSDSECPLSHDGYCLHDGVCMYIEALDKYACNCVVGYIGERCQYRDLKWWELR; Epidermal growth factor; UniProt P01133 971-1023, looked up)”, the “Lipid Composition” value in data set [4] was “High triglycerides”.

On to Vitamin E, for which, in data set [4], the “Lipid Composition” value is on record as “No effect”.
